Source: patent publication US20230106523A1, “QUERCETIN ENHANCEMENT FORMULATION” (SMARTDNA PTY LTD, priority 2020, published 2023)
Several values for one entry are separate records, joined by “and”; a condition that tells them apart may be missing. Identical values can stand only once.

Assays:
[1] = cited from earlier work
[2] = Rat study: serum quercetin concentration after oral gavage; assay type: in vivo, Sprague-Dawley rats; settings: for concentration of quercetin in the serum from individual rats: one column per rat
Experimental: Rats were administered: • (a) Quercetin • (b) American Ruby Red grapefruit extract • (c) Quercetin and American Ruby Red grapefruit extract • (d) grapefruit extract • (e) grapefruit extract and quercetin
5 groups of 8 male Sprague-Dawley rats, aged approximately 14 weeks, weighing 350-400 gm were used in the study. The rats were bred at Hercus-Taeri Resource Unity. All of the rats were healthy and had no medication history.
1. The quercetin was dissolved in distilled water at 12.0 mg/ml immediately prior to administration.
2. American Ruby Red grapefruit was cut in half and juice obtained by manual squeezing.
The grapefruit extract used was a commercially obtained grapefruit juice.
3. A known volume of each of the grapefruit juices was lyophilized. Once dry, the residue was resuspended in distilled water to 25% of its original volume. This reduced the volume to be gavaged to each rat in the relevant groups to make the quantities of active agents administered as high as practical.
4. The quercetin/grapefruit juice formulations were prepared by dissolving the quercetin in the concentrated juices at 12.0 mg/ml.
GROUP 1. Each animal in this group received quercetin at 15 mg per kg body weight administered by oral gavage.
GROUP 2. Each animal in this group received the concentrated New Zealand grapefruit juice (American Ruby Red) at 2.5 ml per kg body weight administered by oral gavage.
GROUP 3. Each animal in this group received quercetin dissolved in the concentrated New
Zealand grapefruit juice (American Ruby Red) administered by oral gavage. The juice was administered so as to provide 15 mg quercetin per kg body weight.
GROUP 4. Each animal in this group received the concentrated grapefruit juice (prepared by Cedenco Ltd) at 2.5 ml per kg body weight administered by oral gavage.
GROUP 5. Each animal in this group received quercetin dissolved in the concentrated grapefruit juice (prepared by Cedenco Ltd) at 2.5 ml per kg body weight administered by oral gavage. The quercetin was dissolved so that it was administered at 15 mg per kg body weight.
1. A 0.5 ml time zero blood sample was taken from each animal from the lateral saphenous vein. The animals were anaesthetized using Halothane in oxygen (3.5% for knockdown, 2.5 to 3.0% for maintenance). The vein was cannulated. The zero-time blood sample was taken from each group of rats the day before the animals were gavaged. Following the collection of the blood sample, a 0.5 ml aliquot of sterile normal saline was given by intraperitoneal (IP) injection.
2. The test sample was prepared freshly immediately prior to the gavaging of each group of rats. Each animal was weighed and the volume of the test sample to be administered calculated.
3. Each rat was gavaged using proprietary gavaging needles (Popper). Once gavaging was complete the animals were left for 10 minutes before being anaesthetized using Halothane in oxygen (3.5% for knockdown, 2.5 to 3.0% for maintenance).
4. […] After each collection an equal volume of sterile saline was administered to each animal via an IP injection. The blood samples were immediately transferred to serum separating microtainer tubes (Becton Dickinson Cat. No 365956) and left to clot for 30 minutes at room temperature. The tubes were centrifuged at 3000 rpm for 10 minutes in a Beckman J6 centrifuge with a swing-out rotor. The sera were pipetted off and transferred into Eppendorf tubes/cryovials which were stored at −80° C.
The sera samples were sent to the Institute of Environmental Science and Research (ESR) (Kenepuru, Wellington, New Zealand) for quantitation of the concentration of quercetin in each. The detection limit for quercetin in serum was 5 ng/ml.

[3] = cited from earlier work; remark: listed apart in the source
[4] = Human trial: blood serum levels of quercetin after ingestion, HPLC-UV; assay type: in vivo; settings: human subject, 80 mg quercetin oral
Experimental: The concentration of quercetin in the blood of a human subject was measured over four hours following ingestion of: • (a) 80 mg quercetin and 200 ml filtered water, • (b) 80 mg quercetin and 200 ml grapefruit extract.
The grapefruit extract consisted of grapefruit juice that was squeezed from the grapefruit with a juicer. The collected juice was freeze-dried and redissolved as a concentrate (4 times) using water for solubilising.
The total amount of 6,7-DHB administered in the grapefruit extract in (b) above was estimated to be about 5.9 mg.
In both experiments, the quercetin was administered as a powder washed down with filtered water.
For the quercetin and grapefruit extract test, the grapefruit extract was taken two hours before the quercetin.
Serum samples were taken from the subject at 15 minute intervals. The samples were extracted into ethyl acetate and the concentration of quercetin determined using HPLC with UV detection at 315 nm. Carbamazepine was used as an internal standard.
A linear relationship for the standard curve was achieved over the range of quercetin standards of 2-150 ng/mL (using weighted linear retgression 1/x^2).
The lower limit of quantification (LLOQ) for the method was determined to be 2 ng/mL (using FDA guidelines for bio-analytical procedures) and the limit of detection was estimated to be 1 ng/mL.

concentration of quercetin in the serum from individual rats ([2]; 0 min (sample taken the day before gavage)): 0
concentration of quercetin in the serum from individual rats ([2]; 30 min after oral gavage, quercetin 15 mg/kg and/or concentrated juice 2.5 ml/kg): 0
rats (of eight) showing quercetin in the serum ([2]; 30 minutes after administration): none was detected in any of the animals
concentration of quercetin in the serum from individual rats ([2]; 60 min after oral gavage, quercetin 15 mg/kg and/or concentrated juice 2.5 ml/kg, listed as Quercetin alone): 0 (7×) and 2
concentration of quercetin in the serum from individual rats ([2]; 90 min after oral gavage, quercetin 15 mg/kg and/or concentrated juice 2.5 ml/kg, listed as Quercetin alone): 0 (7×) and 2
concentration of quercetin in the serum from individual rats ([2]; 120 min after oral gavage, quercetin 15 mg/kg and/or concentrated juice 2.5 ml/kg, listed as Quercetin alone): 0 (7×) and 2
concentration at 0 min ([4]; time 0 min): 0 ng/mL
concentration at 15 min ([4]; time 15 min): 1 ng/mL
concentration at 30 min ([4]; time 30 min): 2.3 ng/mL
concentration at 45 min ([4]; time 45 min): 3.8 ng/mL
concentration at 60 min ([4]; time 60 min): 3.1 ng/mL
concentration at 75 min ([4]; time 75 min): 1 ng/mL
concentration at 90 min ([4]; time 90 min): 0 ng/mL
concentration at 105 min ([4]; time 105 min): 0 ng/mL
concentration at 120 min ([4]; time 120 min): 0 ng/mL
concentration at 135 min ([4]; time 135 min): 0 ng/mL
concentration at 150 min ([4]; time 150 min): 0 ng/mL
concentration at 165 min ([4]; time 165 min): 0 ng/mL
concentration at 180 min ([4]; time 180 min): 0 ng/mL
concentration at 195 min ([4]; time 195 min): 0 ng/mL
concentration at 210 min ([4]; time 210 min): 0 ng/mL
concentration at 225 min ([4]; time 225 min): 0 ng/mL
concentration at 240 min ([4]; time 240 min): 0 ng/mL
SMILES: O=c1c(O)c(-c2ccc(O)c(O)c2)oc2cc(O)cc(O)c12 [Quercetin, 2-(3,4-dihydroxyphenyl)-3,5,7-trihydroxy-4H-chromen-4-one]
water solubility [1]: low
bioavailability of active quercetin (duration) ([3]; human studies (Graefe 1999)): no more than 10 minutes
elimination half-life ([3]; humans, after ingesting quercetin foods or supplements): 1 to 2 h
bioavailability of quercetin in humans ([3]; humans): 0-50%
